{
  "source": "patent US5250679A",
  "about": "“Nonpeptidyl platelet aggregation inhibitors having specificity for the GPIIb III receptor” (Genentech, Inc., priority 1992, dated 1993)",
  "note": "Counter-ions that a name gives are not always drawn.",
  "data": [
    {"biological_target": "T1, GP IIb IIIa (Homo sapiens, UniProt P05106+P08514)", "T1 construct": "from tissue; host or cells: outdated human platelets", "T1 sequence (P08514 32-887 limits assumed)": "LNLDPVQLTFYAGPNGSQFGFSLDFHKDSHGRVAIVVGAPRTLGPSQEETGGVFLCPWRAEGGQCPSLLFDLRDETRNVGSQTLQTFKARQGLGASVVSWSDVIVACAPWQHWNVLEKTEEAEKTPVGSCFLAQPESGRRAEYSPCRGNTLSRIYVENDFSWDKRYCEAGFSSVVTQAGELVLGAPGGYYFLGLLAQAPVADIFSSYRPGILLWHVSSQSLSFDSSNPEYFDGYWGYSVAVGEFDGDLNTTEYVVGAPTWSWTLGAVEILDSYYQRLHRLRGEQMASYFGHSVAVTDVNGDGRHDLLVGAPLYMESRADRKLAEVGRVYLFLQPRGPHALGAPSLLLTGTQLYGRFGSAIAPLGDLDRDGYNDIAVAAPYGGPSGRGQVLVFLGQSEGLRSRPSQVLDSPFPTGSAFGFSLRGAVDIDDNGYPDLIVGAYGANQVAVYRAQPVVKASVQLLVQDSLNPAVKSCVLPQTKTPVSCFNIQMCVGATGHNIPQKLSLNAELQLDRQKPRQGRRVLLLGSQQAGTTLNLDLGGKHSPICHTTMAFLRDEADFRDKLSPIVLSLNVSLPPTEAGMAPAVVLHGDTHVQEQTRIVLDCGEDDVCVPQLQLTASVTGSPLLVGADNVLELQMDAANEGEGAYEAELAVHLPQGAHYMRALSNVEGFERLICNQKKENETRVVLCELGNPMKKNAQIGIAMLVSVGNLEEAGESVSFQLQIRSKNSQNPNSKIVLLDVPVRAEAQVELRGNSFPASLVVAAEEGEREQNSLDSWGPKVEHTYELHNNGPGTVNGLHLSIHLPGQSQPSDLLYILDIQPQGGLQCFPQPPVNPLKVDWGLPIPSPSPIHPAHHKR", "T1 sequence (P08514 891-1039 partner limits assumed)": "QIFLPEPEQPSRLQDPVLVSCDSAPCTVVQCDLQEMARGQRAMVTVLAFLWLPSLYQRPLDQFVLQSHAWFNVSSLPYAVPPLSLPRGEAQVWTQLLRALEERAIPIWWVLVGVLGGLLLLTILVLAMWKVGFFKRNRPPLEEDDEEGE", "T1 sequence (P05106 27-788)": "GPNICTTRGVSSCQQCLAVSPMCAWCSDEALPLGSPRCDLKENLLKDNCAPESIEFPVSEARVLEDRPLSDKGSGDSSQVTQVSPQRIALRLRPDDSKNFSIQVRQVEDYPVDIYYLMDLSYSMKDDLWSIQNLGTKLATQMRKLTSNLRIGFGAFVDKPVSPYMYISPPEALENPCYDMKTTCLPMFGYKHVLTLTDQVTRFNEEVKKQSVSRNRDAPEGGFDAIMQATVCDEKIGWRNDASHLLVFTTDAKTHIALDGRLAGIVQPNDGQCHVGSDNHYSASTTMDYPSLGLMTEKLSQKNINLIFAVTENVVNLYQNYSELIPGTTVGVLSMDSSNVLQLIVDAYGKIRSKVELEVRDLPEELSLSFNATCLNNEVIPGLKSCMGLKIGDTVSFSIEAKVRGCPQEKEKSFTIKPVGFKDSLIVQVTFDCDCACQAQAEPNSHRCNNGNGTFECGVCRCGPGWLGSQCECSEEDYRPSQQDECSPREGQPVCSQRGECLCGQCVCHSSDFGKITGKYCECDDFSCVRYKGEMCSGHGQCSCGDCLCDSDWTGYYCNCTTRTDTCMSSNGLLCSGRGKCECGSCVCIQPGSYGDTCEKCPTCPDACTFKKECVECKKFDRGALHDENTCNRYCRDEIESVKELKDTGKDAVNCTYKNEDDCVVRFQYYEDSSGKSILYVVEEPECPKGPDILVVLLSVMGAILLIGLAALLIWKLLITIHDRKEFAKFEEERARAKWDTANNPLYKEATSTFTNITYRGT", "test": "Fibrinogen-GP IIb IIIa Receptor ELISA Binding Assay (Fg/IIbIIIa)", "conditions": "Example 29, Cmpd # 1-105; read-out: IC50 Fg/IIbI", "method": "Briefly, microtiter plates are coated with fibrinogen (10 mg/ml) and then blocked with TACTS buffer containing 0.5% bovine serum albumin (BSA). […] After another wash a goat anti-mouse IgG conjugated to horseradish peroxidase is added. […] The reaction is stopped with 1N sulfuric acid and the absorbance at 492 nm is recorded. […] Outdated human platelets are washed 3 times with 10 mM tris-HCl, 150 mM NaCl (TBS), 1 mM EDTA, pH 7.5, and centrifuged at 2000×g to pellet cells. […] The supernatant fraction is collected and the supernatant is loaded onto a concanavalin-A column, previously equilibrated in TBS, 1 mM Ca2 Cl2, 0.1% Triton, 0.05% NaN3 and eluted with 0.2M a-methylmannoside. Fractions are pooled and loaded onto a heparin-agarose column. The flowthrough is collected and concentrated on an Amicon YM 30 filter to a volume of approximately 5-10 ml. The concentrate is then applied to an S-300 column (500 ml) and 6 ml fractions are collected. The GP IIb IIIa containing fractions are collected, pooled, and stored at -80° C. […] The precipitate is spun down in appropriate size bottles at 2000×g. The supernatant is decanted and the precipitate resuspended in 150 mM NaCl (approximately 50% of the original volume). […] The suspension is spun down and the precipitate is resuspended in Tris-saline in a minimal volume (approximately 5% of the original volume). Any remaining insoluble material is spun down at 2000 rpm in a Sorval type centrifuge and the fibrinogen supernatant is decanted and dialyzed overnight at 4° C. against Tris-saline. Characterization of the fibrinogen is by the Bradford protein assay, SDS-PAGE, and/or Western blotting using well known standard procedures. Briefly, 96 well plates are coated (Type Nunc 1 MaxisorpTM) with 10 mg/ml purified fibrinogen ([…]), and allowed to stand overnight at 4° C. […] The plates are again washed three times with PBS/Tween and then […] of sample in TNCNT is added. The mixture is incubated for 15 minutes at room temperature on a plate shaker. […] Fifty ml of this diluted GP IIb IIIa is then added to each well and incubated on a plate shaker at room temperature. After one hour, the plates are washed four times with PBS/Tween and 100 ml of a polyclonal or monoclonal antibody specific for GP IIIa such as AP3 (1 mg/ml) (See e.g. […] After a one hour incubation at room temperature on a plate shaker, the samples are washed 4 times with PBS/Tween. […] The color develops within about 3 to 20 minutes and the reaction is stopped with 100 ml 1M H2 SO4. The optical density at 492 nm vs 405 nm is recorded and IC50 values are determined.", "units": {"IC50": "µM"}, "values": [
      {"smiles": "NCCCc1ccc2c(c1)C(=O)N(CCC(=O)O)CC(=O)N2", "note": "[Cmpd 1]", "IC50": 8.3},
      {"smiles": "CN1C(=O)CN(CCC(=O)O)C(=O)c2cc(CCCN)ccc21", "note": "[Cmpd 3]", "IC50": 28},
      {"smiles": "CN1C(=O)CN(CCC(=O)O)C(=O)c2cc(CCCNC(=N)N)ccc21", "note": "[Cmpd 4]", "IC50": 0.466},
      {"smiles": "CN1C(=O)CN(CCC(=O)O)C(=O)c2cc(C#CCN)ccc21", "note": "[Cmpd 5]", "IC50": 7},
      {"smiles": "CN1C(=O)CN(CCC(=O)O)C(=O)c2cc(C#CCNC(=N)N)ccc21", "note": "[Cmpd 6]", "IC50": 0.17},
      {"smiles": "CC1C(=O)N(C)c2ccc(CCCN)cc2C(=O)N1CCC(=O)O", "note": "(stereo not shown) [Cmpd 7]", "IC50": 30},
      {"smiles": "CC1C(=O)N(C)c2ccc(CCCNC(=N)N)cc2C(=O)N1CCC(=O)O", "note": "(stereo not shown) [Cmpd 8]", "IC50": "> 100"},
      {"smiles": "CC1C(=O)N(C)c2ccc(C#CCN)cc2C(=O)N1CCC(=O)O", "note": "(stereo not shown) [Cmpd 9]", "IC50": 70},
      {"smiles": "CC1C(=O)N(C)c2ccc(C#CCNC(=N)N)cc2C(=O)N1CCC(=O)O", "note": "(stereo not shown) [Cmpd 10]", "IC50": 30},
      {"smiles": "CN1C(=O)C(c2ccccc2)N(CCC(=O)O)C(=O)c2cc(CCCN)ccc21", "note": "(stereo not shown) [Cmpd 11]", "IC50": 600},
      {"smiles": "CN1C(=O)C(c2ccccc2)N(CCC(=O)O)C(=O)c2cc(CCCNC(=N)N)ccc21", "note": "(stereo not shown) [Cmpd 12]", "IC50": 2.3},
      {"smiles": "CN1C(=O)C(c2ccccc2)N(CCC(=O)O)C(=O)c2cc(C#CCN)ccc21", "note": "(stereo not shown) [Cmpd 13]", "IC50": "> 1000"},
      {"smiles": "CN1C(=O)C(c2ccccc2)N(CCC(=O)O)C(=O)c2cc(C#CCNC(=N)N)ccc21", "note": "(stereo not shown) [Cmpd 14]", "IC50": 25},
      {"smiles": "CN1C(=O)C2CCC(CC(=O)O)N2C(=O)c2cc(CCCN)ccc21", "note": "(stereo not shown) [Cmpd 15]", "IC50": "> 100"},
      {"smiles": "CN1C(=O)C2CCC(CC(=O)O)N2C(=O)c2cc(CCCNC(=N)N)ccc21", "note": "(stereo not shown) [Cmpd 16]", "IC50": "> 100"},
      {"smiles": "CN1C(=O)C2CCC(CC(=O)O)N2C(=O)c2cc(CCCN)ccc21", "note": "(stereo not shown) [Cmpd 17]", "IC50": "> 100"},
      {"smiles": "CN1C(=O)C2CCC(CC(=O)O)N2C(=O)c2cc(CCCNC(=N)N)ccc21", "note": "(stereo not shown) [Cmpd 18]", "IC50": "> 100"},
      {"smiles": "CN1C(=O)CN(CCC(=O)O)C(=O)c2cc(CCCCN)ccc21", "note": "[Cmpd 19]", "IC50": 5},
      {"smiles": "CN1C(=O)CN(CCC(=O)O)C(=O)c2cc(C#CCCN)ccc21", "note": "[Cmpd 21]", "IC50": 6},
      {"smiles": "CC1C(=O)N(C)c2ccc(CCCCN)cc2C(=O)N1CCC(=O)O", "note": "(stereo not shown) [Cmpd 23]", "IC50": "> 100"},
      {"smiles": "CC1C(=O)N(C)c2ccc(CCCCNC(=N)N)cc2C(=O)N1CCC(=O)O", "note": "(stereo not shown) [Cmpd 24]", "IC50": 100},
      {"smiles": "CC1C(=O)N(C)c2ccc(C#CCCN)cc2C(=O)N1CCC(=O)O", "note": "(stereo not shown) [Cmpd 25]", "IC50": "> 100"},
      {"smiles": "CC1C(=O)N(C)c2ccc(C#CCCNC(=N)N)cc2C(=O)N1CCC(=O)O", "note": "(stereo not shown) [Cmpd 26]", "IC50": 80},
      {"smiles": "NCCCCCc1ccc2c(c1)C(=O)N(CCC(=O)O)CC(=O)N2", "note": "[Cmpd 29]", "IC50": 2.92},
      {"smiles": "N=C(N)NCCCCCc1ccc2c(c1)C(=O)N(CCC(=O)O)CC(=O)N2", "note": "[Cmpd 30]", "IC50": 0.204},
      {"smiles": "NCCCC#Cc1ccc2c(c1)C(=O)N(CCC(=O)O)CC(=O)N2", "note": "[Cmpd 31]", "IC50": 1.43},
      {"smiles": "N=C(N)NCCCC#Cc1ccc2c(c1)C(=O)N(CCC(=O)O)CC(=O)N2", "note": "[Cmpd 32]", "IC50": 0.254},
      {"smiles": "CC(CC(=O)O)N1CC(=O)N(C)c2ccc(C#CCCCN)cc2C1=O", "note": "(stereo not shown) [Cmpd 37, 1-methyl-4-(2-carboxy-1-methylethyl)-7-(5-amino-1-pentyne)-3,4-dihydro-1H-1,4-benzodiazepine-2,5-dione trifluroacetate]", "IC50": 0.061},
      {"smiles": "CN1C(=O)CN(CCC(=O)O)C(=O)c2cc(CCCCCCN)ccc21", "note": "[Cmpd 39]", "IC50": 0.07},
      {"smiles": "CN1C(=O)CN(CCC(=O)O)C(=O)c2cc(CCCCCCNC(=N)N)ccc21", "note": "[Cmpd 40]", "IC50": 0.12},
      {"smiles": "CN1C(=O)CN(CCC(=O)O)C(=O)c2cc(C#CCCCCN)ccc21", "note": "[Cmpd 41, 1-(methyl)-4-(2-carboxyethyl)-7-(6-amino-1-hexynyl)-3,4-dihydro-1H-1,4-benzodiazepine-2,5-dione trifluroacetate]", "IC50": 0.1},
      {"smiles": "CN1C(=O)CN(CCC(=O)O)C(=O)c2cc(CCc3ccc(CN)cc3)ccc21", "note": "[Cmpd 45]", "IC50": 0.085},
      {"smiles": "CN1C(=O)CN(CCC(=O)O)C(=O)c2cc(CCc3ccc(CNC(=N)N)cc3)ccc21", "note": "[Cmpd 46]", "IC50": 0.265},
      {"smiles": "CN1C(=O)CN(CCC(=O)O)C(=O)c2cc(CCc3cccc(N)c3)ccc21", "note": "[Cmpd 47]", "IC50": 10},
      {"smiles": "CN1C(=O)CN(CCC(=O)O)C(=O)c2cc(C#Cc3cccc(N)c3)ccc21", "note": "[Cmpd 49]", "IC50": 6},
      {"smiles": "CN1C(=O)CN(C(CC(=O)O)c2ccccc2)C(=O)c2cc(CCCCCCN)ccc21", "note": "(stereo not shown) [Cmpd 51]", "IC50": 0.2},
      {"smiles": "CN1C(=O)CN(C(CC(=O)O)c2ccccc2)C(=O)c2cc(CCCCCCNC(=N)N)ccc21", "note": "(stereo not shown) [Cmpd 52]", "IC50": 0.39},
      {"smiles": "CN1C(=O)CN(C(CC(=O)O)c2ccccc2)C(=O)c2cc(C#CCCCCN)ccc21", "note": "(stereo not shown) [Cmpd 53]", "IC50": 0.24},
      {"smiles": "CN1C(=O)CN(C(CC(=O)O)c2ccccc2)C(=O)c2cc(C#CCCCCNC(=N)N)ccc21", "note": "(stereo not shown) [Cmpd 54]", "IC50": 0.1},
      {"smiles": "CN1C(=O)CN(CCC(=O)O)C(=O)c2cc(C#Cc3ccc(C#N)cc3)ccc21", "note": "[Cmpd 57]", "IC50": 30},
      {"smiles": "NCCCC#Cc1ccc2c(c1)C(=O)N(CCC(=O)O)CC(=O)N2Cc1ccc(Cl)cc1", "note": "[Cmpd 58]", "IC50": 0.062},
      {"smiles": "N=C(N)NCCCC#Cc1ccc2c(c1)C(=O)N(CCC(=O)O)CC(=O)N2Cc1ccc(Cl)cc1", "note": "[Cmpd 59]", "IC50": 0.009},
      {"smiles": "N=C(N)NCCCCC#Cc1ccc2c(c1)C(=O)N(CCC(=O)O)CC(=O)N2Cc1ccc(Cl)cc1", "note": "[Cmpd 61]", "IC50": 0.043},
      {"smiles": "NCCCCCc1ccc2c(c1)C(=O)N(CCC(=O)O)CC(=O)N2Cc1ccc(Cl)cc1", "note": "[Cmpd 62]", "IC50": 0.176},
      {"smiles": "N=C(N)NCCCCCCc1ccc2c(c1)C(=O)N(CCC(=O)O)CC(=O)N2Cc1ccc(Cl)cc1", "note": "[Cmpd 65]", "IC50": 0.05},
      {"smiles": "N=C(N)NCCCCCCCc1ccc2c(c1)C(=O)N(CCC(=O)O)CC(=O)N2Cc1ccc(Cl)cc1", "note": "[Cmpd 67]", "IC50": 0.2},
      {"smiles": "COc1ccc(CN2C(=O)CN(CCC(=O)O)C(=O)c3cc(CCCCCNC(=N)N)ccc32)cc1", "note": "[Cmpd 79, 1-(p-methoxybenzyl)-4-(2-carboxyethyl)-7-(5-guanidinopentyl)-3,4-dihydro-1H-1,4-benzodiazepine-2,5-dione trifluoroacetate]", "IC50": 0.011},
      {"smiles": "COc1ccc(CN2C(=O)CN(CCC(=O)O)C(=O)c3cc(CCCCCN)ccc32)cc1", "note": "[Cmpd 80, 1-(p-methoxybenzyl)-4-(2-carboxyethyl)-7-(5-aminopentyl)-3,4-dihydro-1H-1,4-benzodiazepine-2,5-dione trifluoroacetate]", "IC50": 0.16},
      {"smiles": "N=C(N)NCCCCCCc1ccc2c(c1)C(=O)N(CCC(=O)O)CC(=O)N2Cc1ccc2ccccc2c1", "note": "[Cmpd 86, 1-(2-napthyl)methyl-4-(2-carboxyethyl)-7-(6-guanidinohexyl)-3,4-dihydro-1H-1,4-benzodiazepine-2,5-dione trifluoroacetate]", "IC50": 0.055},
      {"smiles": "NCCCCC#Cc1ccc2c(c1)C(=O)N(CCC(=O)O)CC(=O)N2Cc1ccc([N+](=O)[O-])cc1", "note": "[Cmpd 87]", "IC50": 0.031},
      {"smiles": "N=C(N)NCCCCC#Cc1ccc2c(c1)C(=O)N(CCC(=O)O)CC(=O)N2Cc1ccc([N+](=O)[O-])cc1", "note": "[Cmpd 88]", "IC50": 0.031},
      {"smiles": "N=C(N)NCCCCCCc1ccc2c(c1)C(=O)N(CCC(=O)O)CC(=O)N2Cc1ccc(C(F)(F)F)cc1", "note": "[Cmpd 89, 1-(p-trifluoromethylbenzyl)-4-(2-carboxyethyl)-7-(6-guanidinohexyl)-3,4-dihydro-1H-1,4-benzodiazepine-2,5-dione trifluoroacetate]", "IC50": 0.047},
      {"smiles": "NCCCCCCc1ccc2c(c1)C(=O)N(CCC(=O)O)CC(=O)N2Cc1ccc(C(F)(F)F)cc1", "note": "[Cmpd 90, 1-(p-trifluoromethylbenzyl)-4-(2-carboxyethyl)-7-(6-aminohexyl)-3,4-dihydro-1H-1,4-benzodiazepine-2,5-dione trifluoroacetate]", "IC50": 0.005},
      {"smiles": "N=C(N)NCCCCCCc1ccc2c(c1)C(=O)N(CCC(=O)O)CC(=O)N2Cc1cccc(Oc2ccccc2)c1", "note": "[Cmpd 91, 1-(m-phenoxybenzyl)-4-(2-carboxyethyl)-7-(6-guanidinohexyl)-3,4-dihydro-1H-1,4-benzodiazepine-2,5-dione trifluoroacetate]", "IC50": 0.009},
      {"smiles": "N=C(N)NCCCCCc1ccc2c(c1)C(=O)N(CCC(=O)O)CC(=O)N2Cc1cccc(Oc2ccccc2)c1", "note": "[Cmpd 92, 1-(m-phenoxybenzyl)-4-(2-carboxyethyl)-7-(5-guanidinopentyl)-3,4-dihydro-1H-1,4-benzodiazepine-2,5-dione trifluoroacetate]", "IC50": 0.011}
    ]}
  ]
}
